Data published in patent publication US20240109898A1, “SUBSTITUTED PYRAZOLO[1,5-A]PYRIMIDINE-7-AMINE DERIVATIVES, COMPOSITIONS AND PHARMACEUTICAL USES THEREOF” (SHANGHAI HAIYAN PHARMACEUTICAL TECHNOLOGY CO., LTD., priority 2021, published 2024).

Key:
[1] = In vivo pharmacokinetics in mice; conditions: mouse, plasma, po, male ICR mice, intragastric 10 mg/kg
Description: To investigate the pharmacokinetic behaviors of the compounds according to the present disclosure in mice and evaluate the pharmacokinetic characteristics thereof, the plasma concentrations of the compounds according to the present disclosure in mice at different time points after intravenous injection and intragastric administration of the compounds were determined by LC/MS/MS.
Experimental Protocol: • Experimental animals: healthy adult male ICR mice (12 mice with body weight of 30-40 g, free water and diet for intravenous injection group, and fasted overnight for intragastric administration group, free water and diet after 4 hours of administration) were provided by Beijing Vital River Laboratory Animal Co. LTD; • Administration route and dosage: the ICR mice were administrated intravenously via the tail vein (2 mg/kg, 5% DMSO, pH 4.5 20% Captisol) and intragastrically (10 mg/kg, 5% DMSO, pH 4.5 20% Captisol).
Blood sample collection: prior to the administration, animals satisfying the experimental requirements were selected, weighed and marked. Before collecting blood samples, the mice were tied together, and the blood of each administrated mouse was collected at the respective scheduled time points (for the intravenous administration, the blood was collected at 0.083 h, 0.25 h, 0.5 h, 1 h, 2 h, 4 h, 6 h, 7.5 h, and 24 h after the administration, respectively, for a total of 9 time points; for the intragastric administration, the blood was collected at 0.083 h, 0.25 h, 0.5 h, 1 h, 2 h, 4 h, 6 h, 7.5 h, and 24 h after the administration, respectively, for a total of 9 time points), about 100 μL of blood was collected from orbit. The blood was transferred to a 1.5 mL tube, which was pre-filled with K2EDTA, centrifuged for 4 minutes (8000 rpm, 4° C.), and the plasma removed within 15 minutes, which all the steps were finished in 15 minutes after the collection of blood samples. All samples were stored in −20° C. refrigerator before sample analysis. The drug concentrations were determined using the LC/MS/MS method, the pharmacokinetic parameters of the compounds of some examples of the present disclosure in mice at the same dosage and administration routes were lists in Table 3: […]

[2] = biological target: CDK9/CycT (Homo sapiens (Human), UniProt P50750); test: LANCE Ultra kinase activity inhibition assay, CDK9/CycT; type: biochemical; conditions: ATP 10 μM, highest compound concentration 1 μM
Chain of CDK9/CycT (P50750 whole entry): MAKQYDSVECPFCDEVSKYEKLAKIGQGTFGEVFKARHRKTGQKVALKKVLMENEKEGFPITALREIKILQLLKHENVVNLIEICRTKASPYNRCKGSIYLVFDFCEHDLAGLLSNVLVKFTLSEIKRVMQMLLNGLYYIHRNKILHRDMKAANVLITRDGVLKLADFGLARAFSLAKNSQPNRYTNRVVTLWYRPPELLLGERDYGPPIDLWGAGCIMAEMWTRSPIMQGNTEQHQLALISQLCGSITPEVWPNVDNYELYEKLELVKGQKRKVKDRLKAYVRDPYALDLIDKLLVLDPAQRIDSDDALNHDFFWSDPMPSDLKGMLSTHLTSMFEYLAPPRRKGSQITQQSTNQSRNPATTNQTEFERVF
Chain of CDK9/CycT (O60563 whole entry partner): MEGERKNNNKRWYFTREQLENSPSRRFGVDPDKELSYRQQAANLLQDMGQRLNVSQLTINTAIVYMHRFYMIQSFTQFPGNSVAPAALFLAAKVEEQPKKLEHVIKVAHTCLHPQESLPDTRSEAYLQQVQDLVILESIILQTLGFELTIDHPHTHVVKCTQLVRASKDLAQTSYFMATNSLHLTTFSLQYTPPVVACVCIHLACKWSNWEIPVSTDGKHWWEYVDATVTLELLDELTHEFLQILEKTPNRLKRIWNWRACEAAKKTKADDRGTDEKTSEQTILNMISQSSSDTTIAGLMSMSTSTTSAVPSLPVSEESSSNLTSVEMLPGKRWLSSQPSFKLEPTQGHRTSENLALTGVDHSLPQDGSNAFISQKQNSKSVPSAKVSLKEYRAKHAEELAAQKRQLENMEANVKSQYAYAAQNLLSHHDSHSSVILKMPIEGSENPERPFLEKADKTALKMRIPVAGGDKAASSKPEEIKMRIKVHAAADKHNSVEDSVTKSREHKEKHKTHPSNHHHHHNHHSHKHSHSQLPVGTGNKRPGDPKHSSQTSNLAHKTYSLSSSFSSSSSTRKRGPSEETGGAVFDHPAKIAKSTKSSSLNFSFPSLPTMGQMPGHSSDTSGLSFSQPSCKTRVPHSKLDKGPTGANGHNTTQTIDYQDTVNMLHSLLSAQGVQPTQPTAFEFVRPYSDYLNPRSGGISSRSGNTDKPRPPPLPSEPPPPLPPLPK
Description: (§1) In the following LANCE Ultra test methods, kinase reagents were purchased from Carna Bioscience, reaction substrates and detection reagents were purchased from PerkinElmer, and the remaining reagents were purchased from Thermo scientific.
The inhibiting effects on the kinase activity of CDK1/CycB (Carna bioscience, #04-102), CDK2/CycA (Carna bioscience, #04-103) and CDK9/CycT (Carna bioscience, #04-110) were determined by using LANCE Ultra method.
The kinase activity test was performed using a system (10 μL) containing the following components: substrate diluent prepared by mixing CDK kinase diluent, Ulight-Myelic basic protein (Perkin Elmer, #TRF-0109, hereinafter referred to as U-MBP) and ATP (Thermo scientific, #PV3227); and the compounds (i.e., analyte) prepared in the examples of the present disclosure. The assay for each kinase includes three test groups, i.e., a background group (Blank), a non-inhibition group (PC), and compound testing group (Test). The components included in each test group were as follows:
(§2) Working concentrations of the respective components of the Test groups in different kinase reactions were as follows.
(§3) Compounds: 10 mM of the compound to be tested was dissolved at room temperature and diluted with DMSO to gradient concentrations, followed by diluting with deionized water to prepare a 4× working solution of the compound, and the content of DMSO was 2%. The highest concentration of compound used in the CDK1 and CDK2 assays was 10 μM, and that in CDK9 assay was 1 μM.
1.33×reaction buffer: the components include 26.7 mM of MOPS, 6.67 mM of MgCl2, and 0.0133% Tween-20, which were stored in a 4° C. refrigerator and protected from light after preparation. Freshly prepared DTT was added to a final concentration of 5.33 mM before use.
(§4) The working concentration of DMSO in the reaction was 0.5%.
(§5) The above-mentioned components, after being mixed, were placed on a shaker and incubated at room temperature in the dark for 1 h. 10 μL of test solution was then added to all test groups (including Blank, PC and Test groups).
10 μL of test solution contains the following components: 16 mM of EDTA (Thermo scientific, #15575), 1 nM of phosphorylated U-MBP protein antibody (Perkin Elmer, #TRF-0201), and 1× detection damping fluid (Perkin Elmer, #CR97-100).
After the test solution was added, the solution was placed on a shaker and continually incubated at room temperature for 1 h in the dark. At the end of incubation, Victor X5 fluorescence microplate reader of Perkin Elmer was used to read the signal; the wavelength of excitation light was 320 nm, and the wavelengths of emission light were 615 nm and 665 nm. The inhibition rate was calculated as below.
1. For all groups, a value of 665 nm/615 nm (hereinafter referred to as Ratio) was calculated, and an inhibition rate was calculated based on the Ratio of each group;
(§6) 2. Inhibition rate=(PCRatio-TestRatio)/(PCRatio-BlankRatio)*100%; and
(§7) 3. XLFIT 5.0 software (IDBS, UK) was used to fit a graph by using the logarithmic value of the compound concentration as the X-axis and the inhibition rater as the Y-axis, and a four-parameter model was used to calculate the half inhibitory concentration IC50 of the compound.

[3] = biological target: CDK2/CycA (Homo sapiens (Human), UniProt P24941); test: LANCE Ultra kinase activity inhibition assay, CDK2/CycA; type: biochemical; conditions: ATP 10 μM, highest compound concentration 10 μM
Text: as §1
(§8) The assay for each kinase includes three test groups, i.e., a background group (Blank), a non-inhibition group (PC), and compound testing group (Test). The components included in each test group were as follows:
as §2, §3, §4, §5
(§9) After the test solution was added, the solution was placed on a shaker and continually incubated at room temperature for 1 h in the dark. […] The inhibition rate was calculated as below.
as §6, §7

[4] = biological target: CDK1/CycB (Homo sapiens (Human), UniProt P06493); test: LANCE Ultra kinase activity inhibition assay, CDK1/CycB; type: biochemical; conditions: ATP 4 μM, highest compound concentration 10 μM
Chain of CDK1/CycB (P06493 whole entry): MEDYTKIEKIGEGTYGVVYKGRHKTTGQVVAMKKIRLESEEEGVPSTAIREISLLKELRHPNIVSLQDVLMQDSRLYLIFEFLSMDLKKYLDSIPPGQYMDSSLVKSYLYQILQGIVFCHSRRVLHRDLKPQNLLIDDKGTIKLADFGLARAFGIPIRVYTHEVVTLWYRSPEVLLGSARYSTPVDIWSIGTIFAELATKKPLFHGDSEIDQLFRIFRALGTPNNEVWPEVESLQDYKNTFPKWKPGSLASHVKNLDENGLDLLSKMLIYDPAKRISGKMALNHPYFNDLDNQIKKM
Chain of CDK1/CycB (P14635 whole entry partner): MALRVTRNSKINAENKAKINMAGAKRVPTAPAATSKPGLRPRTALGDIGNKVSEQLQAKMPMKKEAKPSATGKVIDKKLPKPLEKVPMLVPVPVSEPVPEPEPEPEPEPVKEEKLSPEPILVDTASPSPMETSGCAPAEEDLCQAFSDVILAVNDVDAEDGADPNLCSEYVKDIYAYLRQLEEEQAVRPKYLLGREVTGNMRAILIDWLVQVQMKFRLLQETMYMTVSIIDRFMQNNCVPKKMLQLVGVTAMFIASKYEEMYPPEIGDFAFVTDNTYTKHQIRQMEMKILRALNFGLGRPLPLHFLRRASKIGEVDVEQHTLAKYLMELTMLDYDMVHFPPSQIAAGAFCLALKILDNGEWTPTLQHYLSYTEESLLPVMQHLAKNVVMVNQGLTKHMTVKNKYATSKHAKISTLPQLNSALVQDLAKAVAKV
Text: as §1, §8, §2, §3, §4, §5, §9, §6, §7

Structure (SMILES)	AUC(0-t) ([1]; read-out: Area under the oral curve AUC0-t)	Cmax ([1]; read-out: Oral maximum plasma concentration Cmax(ng/mL))	IC50 [2]	IC50 [3]	IC50 [4]
C[C@H](c1cc(N[C@H]2CC[C@H](N)C2)n2nccc2n1)C1CCC1 [Compound Z-11-P1]	2960 ng·h/mL	379 ng/mL			
CC(C)(c1cc(N[C@H]2CC[C@H](N)C2)n2nccc2n1)C1CCC1 [Compound Z-39]			0.034 µM	> 10 µM	2.48 µM
Cc1cnn2c(N[C@H]3CC[C@H](N)C3)cc(C(C)(C)C3CCC3)nc12 [Compound Z-40]			0.048 µM	> 10 µM	> 10 µM
N[C@H]1CC[C@H](Nc2cc([C@@H](F)C3CCC3)nc3ccnn23)C1 [Compound Z-41-P1]			0.047 µM	> 10 µM	4.59 µM
N[C@H]1CC[C@H](Nc2cc([C@H](F)C3CCC3)nc3ccnn23)C1 [Compound Z-41-P2]			0.013 µM	3.77 µM	2.97 µM
N[C@H]1CC[C@H](Nc2cc(C(F)C3CCCC3)nc3ccnn23)C1 (some centres unmarked) [Compound Z-42]			0.022 µM	8.5 µM	3.3 µM
CCC(c1cc(N[C@H]2CC[C@H](N)C2)n2nccc2n1)C1CCC1 (some centres unmarked) [Compound Z-43]			0.056 µM	> 10 µM	7.1 µM
COC[C@H](c1cc(N[C@H]2CC[C@H](N)C2)n2nccc2n1)C1CC1 [Compound Z-44]			0.082 µM	> 10 µM	> 10 µM
CC(C)(c1cc(N[C@H]2CC[C@H](N)C2)n2ncc(Cl)c2n1)C1CCC1 [Compound Z-46]			0.01 µM	1.81 µM	1.15 µM
CC(c1cc(NC2CCN(N)C2)n2ncc(Cl)c2n1)C1CC1 (centres unmarked) [Compound Z-47]			0.035 µM	1.91 µM	1.04 µM
CC(c1cc(NC2CCN(N)C2)n2ncc(Cl)c2n1)C1CC1 (centres unmarked) [Compound Z-48]			0.068 µM	2.22 µM	1.47 µM
COC(c1cc(N[C@H]2CC[C@H](N)C2)n2nccc2n1)C1CC1 (some centres unmarked) [Compound Z-49]			0.062 µM	> 10 µM	> 10 µM
N[C@H]1CC[C@H](Nc2cc(CC3CCC3)nc3ccnn23)C1 [Compound Z-50]			0.064 µM	> 10 µM	6.57 µM
Cc1cnn2c(N[C@H]3CC[C@H](N)C3)cc(CC3CCC3)nc12 [Compound Z-51]			0.065 µM	7.75 µM	7.76 µM
Cc1cnn2c(N[C@H]3CC[C@H](N)C3)cc(CC3CC3)nc12 [Compound Z-52]			0.032 µM	6.15 µM	7.15 µM
N[C@H]1CC[C@H](Nc2cc(C(F)C3CC3)nc3ccnn23)C1 (some centres unmarked) [Compound Z-53]			0.047 µM	> 10 µM	4.86 µM
N[C@H]1CC[C@H](Nc2cc(CC3CC3)nc3c(F)cnn23)C1 [Compound Z-54]			0.016 µM	2.65 µM	2.16 µM
N[C@H]1CC[C@H](Nc2cc(CC3CC3)nc3c(Cl)cnn23)C1 [Compound Z-55]			0.015 µM	1.91 µM	1.94 µM
C=CCC(C)(C)c1cc(N[C@H]2CC[C@H](N)C2)n2nccc2n1 [Compound Z-57]			0.058 µM	> 10 µM	4.97 µM
C=CC(C)(C)c1cc(N[C@H]2CC[C@H](N)C2)n2ncc(F)c2n1 [Compound Z-58]			0.02 µM	> 10 µM	5.31 µM
C=Cc1cnn2c(N[C@H]3CC[C@H](N)C3)cc(C(C)C3CC3)nc12 (some centres unmarked) [Compound Z-60]			0.024 µM	3.2 µM	2.49 µM
C[C@@H](c1cc(N[C@H]2C[C@H](N)C2)n2nccc2n1)C1CC1 [Compound Z-62-P2]			0.024 µM	> 10 µM	1.82 µM

Further lines, results first:

AUC(0-t) ([1]; read-out: Area under the oral curve AUC0-t)	Cmax ([1]; read-out: Oral maximum plasma concentration Cmax(ng/mL))	IC50 [2]	IC50 [3]	IC50 [4]	Structure (SMILES)
		0.017 µM	4.72 µM	1.54 µM	CC(c1cc(N[C@H]2C[C@H](N)C2)n2nccc2n1)C1CC1 (some centres unmarked) [Compound Z-62]
		0.014 µM	0.278 µM	0.84 µM	CC(=O)N[C@H]1CC[C@H](Nc2cc(C(C)C3CC3)nc3c(Cl)cnn23)C1 (some centres unmarked) [Compound Z-63]
		0.015 µM	3.46 µM	2.31 µM	CC(=N)N[C@H]1CC[C@H](Nc2cc(C(C)C3CC3)nc3c(Cl)cnn23)C1 (some centres unmarked) [Compound Z-64]
		0.019 µM	2.3 µM	1.24 µM	CC(c1cc(N[C@H]2CC[C@H](NC(=N)N)C2)n2ncc(Cl)c2n1)C1CC1 (some centres unmarked) [Compound Z-65]
		0.018 µM	0.332 µM	0.995 µM	CC(=N)N[C@H]1CC[C@H](Nc2cc(C(C3CC3)C3CC3)nc3c(Cl)cnn23)C1 [Compound Z-66]
		0.044 µM	> 10 µM	4.59 µM	CCC(c1cc(N[C@H]2CC[C@H](NC(=N)N)C2)n2nccc2n1)C1CC1 (some centres unmarked) [Compound Z-67]
		0.025 µM	4.68 µM	3.47 µM	CC(=N)N[C@H]1CC[C@H](Nc2cc(C(C3CC3)C3CC3)nc3c(C(F)(F)F)cnn23)C1 [Compound Z-68]
		0.058 µM	> 10 µM	> 10 µM	CCC(c1cc(N[C@H]2CC[C@H](NC(C)=N)C2)n2nccc2n1)C1CC1 (some centres unmarked) [Compound Z-69]
		0.023 µM	3.88 µM	2.26 µM	N[C@H]1CC[C@H](Nc2cc(C(F)C3CCC3)nc3ccnn23)C1 (some centres unmarked) [Compound Z-70]
		0.028 µM	4.53 µM	1.88 µM	CC(c1cc(N[C@H]2CC[C@H](NC(=N)N)C2)n2ncc(F)c2n1)C1CC1 (some centres unmarked) [Compound Z-71]
		0.02 µM	6.57 µM	4.89 µM	CC(=N)N[C@H]1CC[C@H](Nc2cc(C(C)C3CC3)nc3c(F)cnn23)C1 (some centres unmarked) [Compound Z-72]
		0.018 µM	3.68 µM	2.57 µM	CC(=N)N[C@H]1CC[C@H](Nc2cc(C(C3CC3)C3CC3)nc3c(F)cnn23)C1 [Compound Z-73]
		0.417 µM	> 10 µM	> 10 µM	CC(c1cc(N[C@H]2C[C@@H](N)C2)n2nccc2n1)C1CC1 (some centres unmarked) [Compound Z-74]
